From patent US5888762A, “Neurotropic growth factors comprising a homeobox peptide” (Centre National De La Recherche Scientifique (CNRS), priority 1994, dated 1999)
Ends that are not written are not given here.

Columns and labels:
[1] = system: neurons removed from rat embryos (mesencephalon, spinal cord, cortex); test: Biological effect of pAntp on neuritic growth of cultured neurons; format: cell-based; conditions: rat embryo neurons in CDM medium, peptide 9 µg/ml (equivalent to 1.3M), 24 h
Experimental: The neurons removed from rat embryos (E14 to E 16) in various regions of the brain (mesencephalon, spinal cord, cortex), are inoculated into a defined medium (CHAMAK and PROCHIANTZ, DEVELOPMENT, 106, 483, 1989) which permits the survival of only the neuronal cells (CDM medium).
The peptide is added to the nerve cells at a concentration of […] (equivalent to 1.3M).

[2] = system: dissociated embryonic cells; test: Confocal microscopy of fluoresceinated peptides: internalization and nuclear accumulation; format: cell-based, rat; conditions: 2 hours incubation, cells cultured 1 day before fixation
Source text: The cells were then washed, plated and cultured for 1 day before fixation.

[3] = system: dissociated rat embryonic neurons; test: Distribution of 35S-methionine labelled peptides in cell compartments and medium; format: cell-based; conditions: for internalization / translocation through the membrane: 35S-labelled peptides, 2 hours; for MEDIUM (peptide distribution, radioactivity in fraction) / NUCLEAR (peptide distribution, radioactivity in fraction) / POST-NUCLEAR (peptide distribution, radioactivity in fraction): 2 hours incubation, mean ± standard deviation of 6 experiments; for share of the peptides that reach the nuclei: within 2 hours
Experimental: Peptides pAntp50A, pAntp48S, and pAntp40P2, labelled in E. coli with ^35 S-methionine were purified and added to dissociated rat embryonic neurons. After incubation for 2 hours, the medium was recovered by centrifugation and, after lysis of the cells with NP40, nuclear and post-nuclear fractions were isolated.
Identity of the radioactive material present in the nuclei was analysed by gel electrophoresis.
After lysis of the neurons, peptide distribution in the different cell compartments and in the medium was quantified by determination of radioactivity in each fraction.

living neurons = test: Penetration of biotinylated pAntp fragments encompassing helix 3 into living neurons; format: cell-based; conditions: biotinylated peptides 10 μg/ml, 37° C., 3 hours, fluorinated streptavidin
Experimental: These peptides (10 μg/ml) were separately incubated with living neurons, at 37° C. for 3 hours.
After washing and fixation of the cells, the localisation of the peptides is checked by use of fluorinated streptavidin.

Substance | neuritic growth [1] | uptake and nuclear accumulation by confocal microscopy [2] | internalization / translocation through the membrane [3] | MEDIUM (peptide distribution, radioactivity in fraction) [3] [%] | NUCLEAR (peptide distribution, radioactivity in fraction) [3] [%] | POST-NUCLEAR (peptide distribution, radioactivity in fraction) [3] [%] | share of the peptides that reach the nuclei [3] [%] | intracellular localization of the fluorescent label (penetration) (living neurons)
pAntp40P2: mutant pAntp, Leu^40 and Thr^41 substituted by two proline residues (SEQ ID NO: 12) | none of the mutants pAntp40P2, pAntp50A, and pAntp48S was able to promote neurite growth | taken up by all cells in the population and significant concentrations of the peptides accumulated in the nuclei | internalized rapidly | 87.5 ± 2.5 | 11.5 ± 2 | 1.0 ± 0.5 | 10 to 20 | 
pAntp48S: mutant pAntp, Trp^48, Phe^49 and Glu^50 in helix 3 replaced by a single serine residue (SEQ ID NO. 11) | none of the mutants pAntp40P2, pAntp50A, and pAntp48S was able to promote neurite growth |  | unable to translocate through the membrane | 96.5 ± 1 | 2.5 ± 0.5 | 1.0 ± 0.5 |  | 
pAntp50A: mutant recombinant pAntp, Glu^50 →Ala^50 substitution in helix 3 plus His^36 →Tyr cloning artifact (SEQ ID NO: 10) | none of the mutants pAntp40P2, pAntp50A, and pAntp48S was able to promote neurite growth | taken up by all cells in the population and significant concentrations of the peptides accumulated in the nuclei | internalized rapidly | 75.0 ± 6 | 19.0 ± 5 | 6.0 ± 1 | 10 to 20 | 
pAntp 41-55: synthetic biotinylated peptide, amino-acids 41-55 of pAntp (SEQ ID NO: 9) |  |  |  |  |  |  |  | not
pAntp 41-60: synthetic biotinylated peptide, amino-acids 41-60 of pAntp (SEQ ID NO: 7) (TERQIKIWFQNRRMKWKKEN; also: biotinylated, site not given here) |  |  |  |  |  |  |  | intracellular localization of the fluorescent label
pAntp 43-58: synthetic biotinylated peptide, amino-acids 43-58 of pAntp, helix 3 (SEQ ID NO: 8) (RQIKIWFQNRRMKWKK; also: biotinylated, site not given here) |  |  |  |  |  |  |  | intracellular localization of the fluorescent label
